In US10596184B2, “Aza-heteroaryl compounds as PI3K-gamma inhibitors” (Incyte Corporation, priority 2015, dated 2020):
Like-named read-outs stand apart in the source and are kept apart here.

Test system: Phosphorylated Ribosomal Protein S6 (RPS6) in THP-1 cells
Assay: THP-1 RPS6 ELISA Assay
Assay type: cell-based, Human
Settings: 2 hours with compound, then 10 nM MCP-1 for 15 minutes, read-out: THP p-RPS6 ELISA IC50
Protocol: To measure the Phosphorylated Ribosomal Protein S6 (RPS6) in cell lysates, THP-1 cells (Human Acute Monocytic Leukemia) are purchased from ATCC (Manassas, Va.) and maintained in RPMI with 10% FBS (Gibco/Life Technologies, Carlsbad, Calif.). For the assay, THP-1 cells are serum starved overnight in RPMI, then plated in RPMI (2×10^5 cells/well in 90 μL) into 96-well flat-bottom tissue culture treated plates (Corning, Corning, N.Y.), in the presence or absence of a concentration range of test compounds. Covered plates are incubated for 2 hours at 37° C., 5% CO2 then treated with or without 10 nM MCP-1 (MYBioSource, San Diego, Calif.) for 15 minutes at 37° C., 5% CO2. Plates are centrifuged at 1600 RPM and supernatants are removed. Cells are lysed in Lysis Buffer (Cell Signaling, Danvers, Mass.) with Protease Inhibitor (Calbiochem/EMD, Germany), PMSF (Sigma, St Louis Mo.), HALTS (Thermo Fisher, Rockford, Ill.) for 30 min on wet ice. Cell lysates are frozen at −80° C. before testing. The lysates are tested in the Human/Mouse/Rat Phospho-RPS6 ELISA (R&D Systems, Inc. Minn, Minn.). The plate is measured using a microplate reader (SpectraMax M5—Molecular Devices, LLC Sunnyvale, Calif.) set to 450 nm with a wavelength correction of 540. […]

SMILES	IC50 [nM]	IC50 (Homo sapiens) [nM]
CN1CCN(S(=O)(=O)Nc2cncc(-c3ccc4nc(-c5nc6ccccc6[nH]5)oc4c3)c2)CC1 [Example 31, N-(5-(2-(1H-Benzofdlimidazol-2-yl)benzo[d]oxazol-6-yl)pyridin-3-yl)-4-methylpiperazine-1-sulfonamide]	< 1000	
CCS(=O)(=O)Nc1cncc(-c2ccc3nc(-c4nc(C)c(C)[nH]4)oc3c2)c1 [Example 63, N-(5-(2-(4,5-Dimethyl-1H-imidazol-2-yl)benzo[d]oxazol-6-yl)pyridin-3-yl)ethanesulfonamide bis(trifluoroacetate)]		< 5000
